Data on three compounds can be found in patent publication US12618846B2, “Method and device for imaging fluorescent proteins in near- and short-wave infrared” (HELMHOLTZ ZENTRUM MÜNCHEN—DEUTSCHES FORSCHUNGSZENTRUM FÜR …, priority 2019, dated 2026).

A short description of series [1]: Two-color SWIR lymphatic imaging of narcotized mouse. The series is classed as in vivo. To be noted: intradermally into footpads and base of tail, after 30 min. The source says:
The FIGS. 9A, 9B and 9C show merged frames representing the lymphatic system of a narcotized mouse in two-color real-time acquisition. With detector exposure time of 20 ms, a frame rate of 21 fps is achieved with the developed system. […] Then, Julo 7 micelles have been injected intravenously. The lymphatic functional imaging is later enhanced by the assignment of two distinct colors.
Light Source (785 nm laser & 1064 nm laser sequentially triggered, pulse length=21 ms)→Collimator→Mirror→1100 nm Short-pass Filter→Engineered Diffuser→Sample. The arrows represent the light path. Accordingly, the light path has been set up as follows: from Light Source (785 nm laser & 1064 nm laser sequentially triggered, pulse length=21 ms) to Collimator to Mirror to 1100 nm Short-pass Filter to Engineered Diffuser to Sample.
Sample→3×f=500 mm C-Coated lenses→Silver Mirror→1000 nm Long-pass Filter→2×f=200 mm C-coated lenses→InGaAs Detector. The arrows represent the light path. Accordingly, the light path has been set up as follows: from Sample to 3×f=500 mm C-Coated lenses to Silver Mirror to 1000 nm Long-pass Filter to 2×f=200 mm C-coated lenses to InGaAs Detector.
Sample: ICG (aqueous, 13 nmol intradermally [footpads and base of tail]) and Julo7 (micelles, 70 nmol intravenously).

The nature of series [2]: Three-color excitation-multiplexed SWIR imaging of awake mouse. The series is classed as in vivo. The note with it: 80 minutes after i.p. 10 micelles and i.v. 3 micelles and ICG; top-view. From the text: To obtain real-time images in three colors, heptamethine 10 was encapsulated in PEG-coated micelles to impart water solubility. In vivo, we introduced 10 micelles by intraperitoneal injection, and 3 micelles followed by ICG by intravenous injection. […] After establishing both the technology and the molecular tools for multiplexed real-time observation of function in mice, the next goal was to enhance existing SWIR imaging applications.
Physiological properties such as heart-rate, respiratory rate, thermoregulation, metabolism, and the function of the central nervous system, are highly impacted by anesthesia. […] Due to frame rates which are faster than macroscopic movements in animals, the heart rate and respiratory rate in awake animals can be quantified. […] The method allows physiology to be monitored with minimal perturbation of the animal's usual environment. […] The real-time collection can be visualized by observing close time-points in which a continuous movement is monitored without visual aberrations (FIG. 16A). In addition to assessing natural physiology, these tools foreshadow more complex experiments in which the location of multiple probes could be monitored over long periods of time, non-invasively and without the need for anesthesia.

The conditions of series [3]: stated as known property; cited from earlier work.
A short description of series [4]: Absorptive and emissive properties of flavylium heptamethine dyes in dichloromethane. The series is classed as physicochemical. From the text: As the highest energy absorber of the series, the 7-methoxy substituted dye 10 is ˜44 nm blue shifted from Flav7, with absorption at 984 nm, close to the 980 nm laser line, and emission at 1008 nm. […] The diphenylamino substituted 7 is ˜23 nm red-shifted compared to Flav7, while julolidine derivative 3 is red-shifted by ˜35 nm with absorption at 1061 nm and emission at 1088 nm. Due to its absorption maximum and high brightness (εmax), 3 was a promising candidate for SWIR imaging with 1064 nm excitation and was named Julo7. […] This increased understanding of the relationship between structural and absorption/emission wavelengths sets-up opportunities for predicting photophysical properties of the scaffold.
The absorption coefficients (ε) of the series vary from ˜110,000 to ˜240,000 M^−1cm^−1. […] The fluorescence quantum yields (φF) (relative measurements to IR-26=0.05%) remain rather constant, in the 0.4 to 0.6% range, despite red- or blue-shifted behavior, providing a platform for intensity-matched probes. […]
For excitation multiplexing, we are most interested in properties of the series of polymethine fluorophores when exited at 980 and 1064 nm. Thus, we calculated brightness (εA) values for each dye using the absorbance coefficient at the respective wavelengths. […]

The conditions of series [5]: reference value used for relative measurements; cited from earlier work.

`CC1(C)C(/C=C/C=C/C=C/C=C2\N(CCCCS(=O)(=O)[O-])c3ccc4ccccc4c3C2(C)C)=[N+](CCCCS(=O)(=O)[O-])c2ccc3ccccc3c21.[Na+]` [ICG, indocyanine green]: the “conduction through the lymphatic vessels” value in series [1] is given as “efficiently conducted through the lymphatic vessels”. Moreover, the “location of probe in awake mouse” value in series [2] is reported as “exclusively in the liver”. Also, the clearance route result in series [3] is “clears efficiently and exclusively from the liver”.
On to `CN(C)c1ccc2c(c1)OC(c1ccccc1)=C/C2=C\C=C1/CCCC(/C=C/c2cc(-c3ccccc3)[o+]c3cc(N(C)C)ccc23)=C1Cl` [dye 1], for which, in series [4], the “λmax,abs (absorption)” value is reported as 1027 nm and the “λmax,em (emission)” value is on record as 1053 nm.
Regarding `ClC1=C(/C=C/c2cc(-c3ccccc3)[s+]c3ccccc23)CCC/C1=C\C=C1/C=C(c2ccccc2)Sc2ccccc21.[O-][Cl+3]([O-])([O-])[O-]` [IR-26], the “fluorescence quantum yield of reference standard” value in series [5] is on record as 0.05%.
